According to patent US20120094995A1, “2-AZA-BICYCLO[2.2.1]HEPTANE COMPOUNDS AND USES THEREOF” (ASTRAZENECA AB, priority 2009, published 2012):

These compounds were tested against T1, human GlyT1b (Homo sapiens, UniProt P48067) (assay: [3H] Glycine Uptake Assay (SPA) in recombinant hGlyT1b-CHO cells). Settings: Table 2, unit from table title.
T1 construct: expressed in transfected cells
T1 sequence (P48067 1-652 isoform P48067-3): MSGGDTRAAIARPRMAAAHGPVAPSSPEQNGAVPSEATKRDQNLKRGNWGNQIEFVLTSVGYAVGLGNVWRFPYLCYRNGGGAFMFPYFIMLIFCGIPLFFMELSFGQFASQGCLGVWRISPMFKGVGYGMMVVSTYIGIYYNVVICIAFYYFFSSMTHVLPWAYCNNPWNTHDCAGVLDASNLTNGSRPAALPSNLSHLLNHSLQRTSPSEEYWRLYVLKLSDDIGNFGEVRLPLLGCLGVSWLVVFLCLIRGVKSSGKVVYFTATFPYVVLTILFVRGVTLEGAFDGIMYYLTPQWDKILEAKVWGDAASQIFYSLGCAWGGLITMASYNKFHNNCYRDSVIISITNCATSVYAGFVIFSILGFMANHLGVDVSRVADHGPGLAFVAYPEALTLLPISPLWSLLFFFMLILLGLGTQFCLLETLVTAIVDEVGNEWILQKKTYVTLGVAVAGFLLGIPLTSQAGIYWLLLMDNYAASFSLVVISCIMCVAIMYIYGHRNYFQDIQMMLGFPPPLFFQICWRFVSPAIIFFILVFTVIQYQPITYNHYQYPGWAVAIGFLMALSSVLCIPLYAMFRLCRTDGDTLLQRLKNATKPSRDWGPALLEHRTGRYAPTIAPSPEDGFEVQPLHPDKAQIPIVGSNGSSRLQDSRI
Type: cell-based
Description: A. [3H] Glycine Uptake Assay
Preparation of recombinant human GlyT1b-CHO cells (hGlyT1b-CHO). The human GlyT1b CDS (GC002087, NM_006934) was cloned downstream of a CMV promoter in a bicistronic expression vector containing a hygromycin B resistance gene. CHO-K1 cells (ATCC) were transfected with the recombinant vector containing GlyT1b using Lipofectamine 2000 (Invitrogen) and cultured in Ham's/F12 media supplemented with 10% fetal bovine serum, 2 mM L-glutamine at 37° C., 5% CO2, 90% humidity. Twenty-four hours after transfection, cells were diluted and switched to media containing 0.5 mg/ml hygromycin B. Antibiotic resistant cells were obtained after 21 days of culture in the presence of hygromycin B. Clonal stable cell lines were isolated by FACS single cell deposition into 96-well plates.
Cells used were Recombinant hGlyT1b/CHO. These cells were cultured in cell culture medium (Ham's/F12 (Modified) (Mediatech, 10-080-CM), containing 10% FBS, 2 mM L-glutamine (Invitrogen 25030-149) and 0.5 mg/mL hygromycin B (Invitrogen, 10687-010)) in 175 cm^2 flasks until near confluence before use in the assay.
Cell medium in a cell culture flask containing near confluent cells was removed and 5 mL of cell stripper was added to submerge all cells on the surface of the culture flask. Cell stripper was removed immediately and the flask incubated in a 37° C. incubator for ˜5 min. Cells were shaken loose and suspended in 5 mL of PBS. After splitting cells to initiate a new flask(s), the cells remaining were collected by centrifugation, counted, and resuspended in assay buffer to a density of ˜2 million/mL. The cell suspension was kept at room temperature before use. The assays buffer was 10 mM HEPES, pH 7.4, containing 150 mM NaCl, 5 mM KCl, 1.5 mM CaCl2, 1.5 mM MgCl2, 0.45 mg/mL L-alanine (added fresh), and 1.8 mg/mL D-glucose (added fresh).
WGA PTV beads were suspended in assay buffer (2 mg/ml) containing 60 nM [^3H]Glycine (PerkinElmer (NET-004, [2-^3H]Glycine, 53.3 Ci/mmol, 1 mCi/mL)) and 20 μM unlabeled glycine and the suspension was kept at room temperature before assay.
To the wells of an OptiPlate, 2 μl DMSO containing a test compound was spotted. This was followed by addition of 98 μl of cell suspension (˜1 million/ml final). After incubating cells with compound for ˜15 min, 100 μl of the SPA (200 μg/well final) and isotope mixture (30 nM isotope with 10 μM cold glycine, final) was added to initiate the glycine uptake. At 2 h, the plate was read on a TopCount to quantify SPA counts.
With `Cc1cccc(C)c1C(=O)N[C@H](c1ccccc1)C12CCC(CC1)N2CCO` [Example 34] the IC50 was under 1.28 nM.
Work on `Cc1cccc(C)c1C(=O)NC(c1cccc(F)c1)C12CCC(CC1)N2` (stereo not drawn) [Example 35] yielded an IC50 of 18 nM.
In the case of `Cc1cccc(C)c1C(=O)NC(c1ccncc1)C12CCC(CC1)N2C` (stereo not drawn) [Example 37], the IC50 is reported as 6 nM.
Compound `Cc1cccc(C)c1C(=O)N[C@H](c1ccccc1)C12CCC(CC1)N2CCN` [Example 40] has an IC50 of 13 nM.
With `CC(=O)NCCN1C2CCC1([C@H](NC(=O)c1c(C)cccc1C)c1ccccc1)CC2` [Example 42] the IC50 was 6 nM.
Work on `CSc1ncccc1C(=O)NC(c1ccccc1)C12CCC(CC1)N2C1CCC1` (stereo not drawn) [Example 44] yielded an IC50 of 243 nM.
Compound `CSc1ncccc1C(=O)NC(c1ccccc1)C12CCC(CC1)N2C(C)C` (stereo not drawn) [Example 48] has an IC50 of 23 nM.
Work on `Cc1cccc(C)c1C(=O)N[C@H](c1ccccc1)C12CCC(CC1)N2Cc1ccccn1` [Example 49] yielded an IC50 of 155 nM.
In the case of `CCN1C2CCC1(C(NC(=O)c1c(Cl)cncc1Cl)c1ccccc1)CC2` (stereo not drawn) [Example 50], the IC50 is reported as 237 nM.
For `CCN1C2CCC1(C(NC(=O)c1cccnc1SC)c1ccccc1)CC2` (stereo not drawn) [Example 51], the IC50 was 107 nM.
Work on `CCN1C2CCC1(C(NC(=O)c1ccnc(C(F)(F)F)c1F)c1ccccc1)CC2` (stereo not drawn) [Example 52] yielded an IC50 of 297 nM.
`COCCCN1C2CCC1(C(NC(=O)c1cccnc1SC)c1ccccc1)CC2` (stereo not drawn) [Example 55] was tested, and the IC50 was 310 nM.
Work on `Cc1cccc(C)c1C(=O)N[C@H](c1ccccc1)C12CCC(CC1)N2CC1CCCO1` (stereo partly drawn) [Example 56] yielded an IC50 of 4 nM.
`CSc1ncccc1C(=O)N[C@H](c1ccccc1)C12CCC(CC1)N2C1CC1` [Example 57] gave an IC50 of 45 nM.
Work on `Cc1cccc(C)c1C(=O)N[C@H](c1ccccc1)C12CCC(CC1)N2CCC(F)(F)F` [Example 58] yielded an IC50 of 3 nM.
Work on `Cc1cccc(C)c1C(=O)NC(c1cccnc1)C12CCC(CC1)N2` (stereo not drawn) [Example 60] yielded an IC50 of 30 nM.
For `Cc1cccc(C)c1C(=O)N[C@H](c1ccccc1)C12CCC(CC1)N2Cc1cnn(C)c1` [Example 61], the IC50 was 12 nM.
With `Cc1cccc(C)c1C(=O)NC(c1cccnc1)C12CCC(CC1)N2C` (stereo not drawn) [Example 65] the IC50 was 31 nM.
Compound `Cc1cccc(Cl)c1C(=O)NC(c1ccccc1)C12CCC(CC1)N2C` (stereo not drawn) [Example 67] has an IC50 of 6 nM.
`Cc1ccc(C(NC(=O)c2c(C)cccc2C)C23CCC(CC2)N3C)cn1` (stereo not drawn) [Example 68] gave an IC50 of 129 nM.
In the case of `Cc1cccc(C)c1C(=O)N[C@H](c1ccccc1)C12CCC(CC1)N2CCN1CCCC1` [Example 69], the IC50 is reported as 51 nM.
With `Cc1cccc(C)c1C(=O)N[C@H](c1ccccc1)C12CCC(CC1)N2CCN1CCOC1=O` [Example 70] the IC50 was 3 nM.
Work on `Cc1cccc(C)c1C(=O)N[C@H](c1ccccc1)C12CCC(CC1)N2CCN1CCOCC1` [Example 71] yielded an IC50 of under 2 nM.
For `Cc1cccc(C)c1C(=O)N[C@H](c1cncnc1)C12CCC(CC1)N2C` [Example 72], the IC50 was 148 nM.
With `Cc1cccc(C)c1C(=O)NC(c1cccc(C#N)c1)C12CCC(CC1)N2C` (stereo not drawn) [Example 79] the IC50 was 87 nM.
`Cc1cccc(C)c1C(=O)N[C@H](c1ccccc1)C12CCC(CC1)N2C[C@H]1CCCN1` [Example 80] showed an IC50 of 313 nM.
For `Cc1cc(F)cc(C)c1C(=O)NC(c1ccccc1)C12CCC(CC1)N2C` (stereo not drawn) [Example 82], the IC50 was 4 nM.
`Cc1cc(C(NC(=O)c2c(C)cccc2C)C23CCC(CC2)N3)ccn1` (stereo not drawn) [Example 83] was tested, and the IC50 was 136 nM.
`Cc1cccc(C(NC(=O)c2c(C)cccc2C)C23CCC(CC2)N3C)c1` (stereo not drawn) [Example 84] gave an IC50 of 26 nM.
`Cc1cccc(C)c1C(=O)NC(c1cccc(C(=O)N(C)C)c1)C12CCC(CC1)N2C` (stereo not drawn) [Example 88] showed an IC50 of 57 nM.
`Cc1cccc(C)c1C(=O)NC(c1ccc(Br)cc1)C12CCC(CC1)N2` (stereo not drawn) [Example 89] was tested, and the IC50 was 68 nM.
Work on `Cc1cccc(C)c1C(=O)NC(c1ccc(Br)cc1)C12CCC(CC1)N2C` (stereo not drawn) [Example 90] yielded an IC50 of 4 nM.
For `COCCN1C2CCC1([C@H](NC(=O)c1ccccc1C)c1ccccc1)CC2` [Example 92], the IC50 was 202 nM.
`Cc1cccc(C)c1C(=O)NC(c1ccc(C#N)cc1)C12CCC(CC1)N2C` (stereo not drawn) [Example 93] gave an IC50 of 226 nM.
`CCc1ccccc1C(=O)N[C@H](c1ccccc1)C12CCC(CC1)N2CCOC` [Example 95] showed an IC50 of 68 nM.
Compound `COCCN1C2CCC1([C@H](NC(=O)c1ccc(F)cc1C)c1ccccc1)CC2` [Example 96] has an IC50 of 167 nM.
`Cc1cccc(C)c1C(=O)NC(c1ccc(N2CCOCC2)cc1)C12CCC(CC1)N2C` (stereo not drawn) [Example 97] showed an IC50 of 73 nM.
For `CCCOC(=O)c1ccc(C(NC(=O)c2c(C)cccc2C)C23CCC(CC2)N3C)cc1` (stereo not drawn) [Example 98], the IC50 was 39 nM.
`Cc1cccc(C)c1C(=O)NC(c1ccc(O)cc1)C12CCC(CC1)N2C` (stereo not drawn) [Example 99] gave an IC50 of 6 nM.
`CCCOc1ccc(C(NC(=O)c2c(C)cccc2C)C23CCC(CC2)N3C)cc1` (stereo not drawn) [Example 100] was tested, and the IC50 was 223 nM.
`CC(=O)Nc1cccc(C(NC(=O)c2c(C)cccc2C)C23CCC(CC2)N3C)c1` (stereo not drawn) [Example 102] was tested, and the IC50 was 127 nM.
`CCCCc1cccc(C(NC(=O)c2c(C)cccc2C)C23CCC(CC2)N3C)c1` (stereo not drawn) [Example 103] gave an IC50 of 119 nM.
